Legend:
[1] = phase 2 clinical trial; cited from earlier work
advanced NSCLC = settings: phase 3, Chinese patients; cited from earlier work
[2] = Expected steady state exposure of sintilimab 200 mg Q3W; assay type: in vivo
Procedure: In some embodiments of the present application, sintilimab is administered at a single dose of 200 mg by intravenous infusion, once every 3 weeks, and every 3 weeks is a treatment cycle.
The selection of the administration mode of sintilimab in this study was mainly based on the data of safety and exposure (concentration)-response (PD-1 receptor occupancy) relationship in the currently completed preliminary studies, combined with the preclinical in vitro/in vivo efficacy and related comparison data of similar drugs.

Compound | overall survival [1] | progression-free survival [1] | overall survival (advanced NSCLC) | progression-free survival (advanced NSCLC) | tolerability (advanced NSCLC) | time of continuous administration to reach steady state ([2]; 200 mg Q3W (4 times)) [days] | mean steady state trough concentration ([2]; 200 mg Q3W continuously for 84 days (4 times))
COc1cc2c(Oc3ccc4[nH]c(C)cc4c3F)ccnc2cc1OCC1(N)CC1 [anlotinib, 1-[[[4-(4-fluoro-2-methyl-1H-indol-5-yl)oxy-6-methoxyquinolin-7-yl]oxy]methyl]cyclopropylamine] | potential benefit in overall survival | improve progression-free survival | prolonged | prolonged | well tolerated |  | 
sintilimab: anti-PD-1 human IgG4 monoclonal antibody; heavy chain SEQ ID NO: 10, light chain SEQ ID NO: 9; antibody D of CN108473977A |  |  |  |  |  | 84 | about 26 μg/mL

— US20220378776A1, “DRUG COMBINATION OF QUINOLINE DERIVATIVE AND PD-1 MONOCLONAL ANTIBODY” (CHIA TAI TIANQING PHARMACEUTICAL GROUP CO., LTD, priority 2019, published 2022)
